Experimental data as given in patent US11753445B2, “Therapeutic peptides” (COHBAR, INC., priority 2016, dated 2023).
Peptide text beside a SMILES is read from it.

Test system: 3T3-L1 Adipocytes
Assay: Free fatty acid levels in cultured mouse 3T3-L1 adipocytes, isoproterenol stimulated (Example 2)
Type: cell-based
Details: test peptides 25 μM; isoproterenol 1 nM
Experimental: Mouse 3T3-L1 cells were seeded at a density between 1,000-20,000 cells per well on 96-well, 48-well, or 24-well plates in Pre-adipocyte Medium (Zen-Bio, Durham, N.C.) and grown to confluence at 37° C. in a humidified atmosphere of 5% CO2/95% air. Two days after confluence, cells were placed in Adipocyte Differentiation Medium (Zen-Bio, Durham, N.C.) and cultured for three additional days at 37° C. in a humidified atmosphere of 5% CO2/95% air. The culture media was then replaced with Adipocyte Maintenance Medium (Zen-Bio) and the cells were maintained for an additional 9-14 days at 37° C. in a humidified atmosphere of 5% CO2/95% air with partial medium replacement every other day. Following 12-17 days of differentiation, test peptides were added at a final concentration of 25 μM and incubated for 18-20 hours in Adipocyte Maintenance Medium at 37° C. in a humidified atmosphere of 5% CO2/95%. After 18-20 hours, the media was exchanged with fresh Adipocyte Maintenance Medium containing test peptides and incubated for 1 h at 37° C. in a humidified atmosphere of 5% CO2/95%. After 1 h media was exchanged with Assay Buffer (Zen-Bio) containing isoproterenol (1 nM) (added to all samples except untreated controls) and the test peptides. Cells were incubated for a further 3 hours at 37° C. in a humidified atmosphere of 5% CO2/95%. Free fatty acid concentrations in the media were determined using a Free Fatty Acid Assay Kit (Zen-Bio) according to the manufacturer's instructions using a plate reader (540 nm).
Absorbance values were corrected for untreated background and expressed relative to isoproterenol treated cells. Treatment with isoproterenol (1 nM) alone was used as the free fatty acid level stimulatory control. The relative standard deviation of the isoproterenol control was <10%. […] Free fatty acid levels for insulin (100 nM) treatment were <5% of the isoproterenol control value.

Row | Compound | Free Fatty Acid Levels in 3T3-L1 Adipocytes Expressed as a Percent of Isoproterenol Control: Percent of Control Value [%]
1 | CC[C@H](C)[C@@H]1NC(=O)[C@H](Cc2ccc(O)cc2)NC(=O)CNC(=O)[C@@H](NC(=O)[C@H](CCC(=O)O)NC(=O)[C@H](CCC(N)=O)NC(=O)[C@H](Cc2c[nH]c3ccccc23)NC(=O)[C@H](CCCNC(=N)N)NC(=O)[C@H](CCSC)NC(C)=O)CCC(=O)NCCCC[C@@H](C(=O)N[C@@H](CCCNC(=N)N)C(=O)N[C@@H](CCCCN)C(=O)N[C@@H](CC(C)C)C(=O)N[C@@H](CCCNC(=N)N)C(N)=O)NC(=O)[C@H](Cc2ccc(O)cc2)NC(=O)[C@H](Cc2ccccc2)NC1=O [compound 226] (HELM PEPTIDE1{[ac].M.R.W.Q.E.E.G.Y.I.F.Y.K.R.K.L.R.[am]}$PEPTIDE1,PEPTIDE1,7:R3-13:R3$$$V2.0) | 79.8
2 | Ac-LKWQEMGYIFYPRKR-NH2 [compound 117] | 97.7
3 | H-MRWQEMGYIFEPRKLR-OH [compound 177] | 61.4
4 | CC[C@H](C)[C@H](NC(=O)[C@H](Cc1ccc(O)cc1)NC(=O)CNC(=O)[C@H](CCSC)NC(=O)[C@H](CCC(=O)O)NC(=O)[C@H](CCC(N)=O)NC(=O)[C@H](Cc1c[nH]c2ccccc12)NC(=O)[C@H](CCCNC(=N)N)NC(=O)[C@H](CCSC)NC(C)=O)C(=O)N[C@@H](Cc1ccccc1)C(=O)N[C@@H](Cc1ccc(O)cc1)C(=O)N1CCC[C@H]1C(=O)N[C@@H](CCCNC(=N)N)C(=O)N[C@@H](CCCCN)C(=O)N[C@H](C)C(=O)N[C@@H](CCCNC(=N)N)C(N)=O [compound 166] (HELM PEPTIDE1{[ac].M.R.W.Q.E.M.G.Y.I.F.Y.P.R.K.[dA].R.[am]}$$$$V2.0) | 78.0
5 | H-MRWQEMGYIFYPEKLR-OH [compound 179] | 47.2
6 | Ac-MRWQEMGYIFYPRK-NH2 [compound 60] | 89.3
7 | H-MRWQEMGEIFEPRKLR-OH [compound 134] | 56.2
8 | Ac-LKWQEMGYIFYPRKRL-NH2 [compound 115] | 83.4
9 | Ac-MRWAEMGYIFYPRKLR-NH2 [compound 25] | 27.8
10 | CC[C@H](C)[C@H](NC(=O)[C@H](Cc1ccc(O)cc1)NC(=O)CNC(=O)[C@H](C)NC(=O)[C@H](CCC(=O)O)NC(=O)[C@H](CCC(N)=O)NC(=O)[C@H](Cc1c[nH]c2ccccc12)NC(=O)[C@H](CCCNC(=N)N)NC(=O)[C@@H](C)N)C(=O)N[C@@H](C)C(=O)N[C@@H](CCC(=O)O)C(=O)N1CCC[C@H]1C(=O)N[C@@H](CCCNC(=N)N)C(=O)N[C@@H](CCCCN)C(=O)N[C@@H](CC(C)C)C(=O)N[C@@H](C)C(=O)O [compound 245] (HELM PEPTIDE1{[dA].R.W.Q.E.A.G.Y.I.A.E.P.R.K.L.A}$$$$V2.0) | 78.1
11 | CC[C@H](C)[C@H](NC(=O)[C@H](Cc1ccc(O)cc1)NC(=O)[C@@H](C)NC(=O)[C@H](CCSC)NC(=O)[C@H](CCC(=O)O)NC(=O)[C@H](CCC(N)=O)NC(=O)[C@H](Cc1c[nH]c2ccccc12)NC(=O)[C@H](CCCNC(=N)N)NC(=O)[C@@H](N)CCSC)C(=O)N[C@@H](Cc1ccccc1)C(=O)N[C@@H](Cc1ccc(O)cc1)C(=O)N1CCC[C@H]1C(=O)N[C@@H](CCCNC(=N)N)C(=O)N[C@@H](CCCCN)C(=O)N[C@@H](CC(C)C)C(=O)N[C@@H](CCCNC(=N)N)C(=O)O [compound 142] (HELM PEPTIDE1{M.R.W.Q.E.M.[dA].Y.I.F.Y.P.R.K.L.R}$$$$V2.0) | 31.9
12 | Ac-MRWQEMGYIFYPRKLE-NH2 [compound 197] | 84.6
13 | CC[C@H](C)[C@H](NC(=O)[C@H](Cc1ccc(O)cc1)NC(=O)CNC(=O)[C@H](CCSC)NC(=O)[C@H](CCC(=O)O)NC(=O)[C@H](CCC(N)=O)NC(=O)[C@H](Cc1c[nH]c2ccccc12)NC(=O)[C@H](CCCNC(=N)N)NC(=O)[C@@H](N)CCSC)C(=O)N[C@@H](Cc1ccccc1)C(=O)N[C@H](C)C(=O)N1CCC[C@H]1C(=O)N[C@@H](CCCNC(=N)N)C(=O)N[C@@H](CCCCN)C(=O)N[C@@H](CC(C)C)C(=O)N[C@@H](CCCNC(=N)N)C(=O)O [compound 146] (HELM PEPTIDE1{M.R.W.Q.E.M.G.Y.I.F.[dA].P.R.K.L.R}$$$$V2.0) | 55.9
14 | H-MREQEMGYIFYPRKLR-OH [compound 170] | 48.0
15 | CC[C@H](C)[C@H](NC(=O)[C@H](Cc1ccc(O)cc1)NC(=O)CNC(=O)[C@@H](C)NC(=O)[C@H](CCC(=O)O)NC(=O)[C@H](CCC(N)=O)NC(=O)[C@H](Cc1c[nH]c2ccccc12)NC(=O)[C@H](CCCNC(=N)N)NC(=O)[C@H](CCSC)NC(C)=O)C(=O)N[C@@H](Cc1ccccc1)C(=O)N[C@@H](Cc1ccc(O)cc1)C(=O)N1CCC[C@H]1C(=O)N[C@@H](CCCNC(=N)N)C(=O)N[C@@H](CCCCN)C(=O)N[C@@H](CC(C)C)C(=O)N[C@@H](CCCNC(=N)N)C(N)=O [compound 157] (HELM PEPTIDE1{[ac].M.R.W.Q.E.[dA].G.Y.I.F.Y.P.R.K.L.R.[am]}$$$$V2.0) | 85.0
16 | CC[C@H](C)[C@@H]1NC(=O)[C@H](Cc2ccc(O)cc2)NC(=O)CNC(=O)[C@@H](NC(=O)[C@H](CCC(=O)O)NC(=O)[C@H](CCC(N)=O)NC(=O)[C@H](Cc2c[nH]c3ccccc23)NC(=O)[C@H](CCCNC(=N)N)NC(=O)[C@H](CCSC)NC(C)=O)CSSC[C@@H](C(=O)N[C@@H](CCCNC(=N)N)C(=O)N[C@@H](CCCCN)C(=O)N[C@@H](CC(C)C)C(=O)N[C@@H](CCCNC(=N)N)C(N)=O)NC(=O)[C@H](Cc2ccc(O)cc2)NC(=O)[C@H](Cc2ccccc2)NC1=O [compound 225] (HELM PEPTIDE1{[ac].M.R.W.Q.E.C.G.Y.I.F.Y.C.R.K.L.R.[am]}$PEPTIDE1,PEPTIDE1,7:R3-13:R3$$$V2.0) | 97.0
17 | CC[C@H](C)[C@H](NC(=O)[C@H](Cc1ccc(O)cc1)NC(=O)CNC(=O)[C@H](CCSC)NC(=O)[C@@H](C)NC(=O)[C@H](CCC(N)=O)NC(=O)[C@H](Cc1c[nH]c2ccccc12)NC(=O)[C@H](CCCNC(=N)N)NC(=O)[C@@H](N)CCSC)C(=O)N[C@@H](Cc1ccccc1)C(=O)N[C@@H](Cc1ccc(O)cc1)C(=O)N1CCC[C@H]1C(=O)N[C@@H](CCCNC(=N)N)C(=O)N[C@@H](CCCCN)C(=O)N[C@@H](CC(C)C)C(=O)N[C@@H](CCCNC(=N)N)C(=O)O [compound 140] (HELM PEPTIDE1{M.R.W.Q.[dA].M.G.Y.I.F.Y.P.R.K.L.R}$$$$V2.0) | 60.8
